Assay results as given in patent US20150011423A1, “MEANS AND METHODS FOR ASSESSING KIDNEY TOXICITY” (BASF SE, priority 2011, published 2015).
Where two headings read alike, the source gives them in different places. Marks after values point to notes of the source that are not given here.

What was measured:
rats [1] = assay: 28-day repeated dose study in rats with mass spectrometry-based plasma metabolite profiling (GC-MS, LC-MS, SPE-LC-MS); treatment ratios versus control; details: plasma; for Glutamate, treatment ratio versus control / Lysophosphatidylcholine (C20:4), treatment ratio versus control / Malate, treatment ratio versus control: Table 1d diuretic effect
Method: (§1) A group of each 5 male and female rats was dosed once daily with the indicated compounds (see Table 9, below for compounds, applied doses and administration details) over 28 days.
(§2) Each dose group in the studies consisted of five rats per sex. Additional groups of each 5 male and female animals served as controls. Before starting the treatment period, animals, which were 62-64 days old when supplied, were acclimatized to the housing and environmental conditions for 7 days. All animals of the animal population were kept under the same constant temperature (20-24±3° C.) and the same constant humidity (30-70%). The animals of the animal population were fed ad libitum. The food to be used was essentially free of chemical or microbial contaminants. Drinking water was also offered ad libitum. […] The illumination period was 12 hours light followed by 12 hours darkness (12 hours light, from 6:00 to 18:00, and 12 hours darkness, from 18:00 to 6:00). […] The test substances (compounds in Table 9 were dosed and administered as described in the table above.
(§3) In the morning of day 7, 14, and 28, blood was taken from the retroorbital venous plexus from fasted anaesthetized animals. From each animal, 1 ml of blood was collected with EDTA as anticoagulant. The samples were centrifuged for generation of plasma. All plasma samples were covered with a N2 atmosphere and then stored at −80° C. until analysis.
(§4) For mass spectrometry-based metabolite profiling analyses plasma samples were extracted and a polar and a non-polar (lipid) fraction was obtained. For GC-MS analysis, the non-polar fraction was treated with methanol under acidic conditions to yield the fatty acid methyl esters. Both fractions were further derivatised with O-methyl-hydroxyamine hydrochloride and pyridine to convert Oxo-groups to O-methyloximes and subsequently with a silylating agent before analysis. In LC-MS analysis, both fractions were reconstituted in appropriate solvent mixtures. HPLC was performed by gradient elution on reversed phase separation columns.
(§5) Steroids and their metabolites were measured by online SPE-LC-MS (Solid phase extraction-LC-MS).
(§6) Following comprehensive analytical validation steps, the data for each analyte were normalized against data from pool samples. These samples were run in parallel through the whole process to account for process variability. The significance of treatment group values specific for sex, treatment duration and metabolite was determined by comparing means of the treated groups to the means of the respective untreated control groups using WELCH-test and quantified with treatment ratios versus control and p-values.

rats [2] = details: rat, in vivo
Method: as §1, §2, §3, §4, §5, §6

[3] = male rats, day 7, high dose, Table 1c diuretic effect
[4] = male rats, day 14, high dose, Table 1c diuretic effect
[5] = male rats, day 28, high dose, Table 1c diuretic effect
[6] = male rats, day 28, high dose, Table 8a direct tubular effect
[7] = male rats, day 28, high dose, Table 8b direct tubular effect
[8] = female rats, day 28, high dose, Table 1a diuretic effect
[9] = female rats, day 28, high dose, Table 1b diuretic effect

`Cn1cnc2c1c(=O)[nH]c(=O)n2C` [Theobromine] was tested, and the “Ceramide (d18:1, C24:0), treatment ratio versus control” value (rats [1]; [3]) was 0.84^, the “Choline plasmalogen No 02, treatment ratio versus control” value (rats [1]; [3]) was 1.38 * and the “Glutamate, treatment ratio versus control” value (rats [1]; male rats, day 7, high dose) was 0.74 *. For the same compound, the “Lysophosphatidylcholine (C20:4), treatment ratio versus control” value (rats [1]; male rats, day 7, high dose) was 0.8 *, the “Ceramide (d18:1, C24:0), treatment ratio versus control” value (rats [1]; [4]) was 1.35 * and the “Choline plasmalogen No 03, treatment ratio versus control” value (rats [1]; [4]) was 1.1. For the same compound, the “Threonine, treatment ratio versus control” value (rats [1]; [4]) was 1.53 *, the “Glutamate, treatment ratio versus control” value (rats [1]; male rats, day 14, high dose) was 0.94 * and the “Lysophosphatidylcholine (C20:4), treatment ratio versus control” value (rats [1]; male rats, day 14, high dose) was 0.86 *. For the same compound, the “Ceramide (d18:1, C24:1), treatment ratio versus control” value (rats [1]; [5]) was 1.52^, the “Choline plasmalogen No 03, treatment ratio versus control” value (rats [1]; [5]) was 1.1 * and the “Sphingomyelin (d18:2, C16:0), treatment ratio versus control” value (rats [1]; [5]) was 1.9 *. The “Glutamate, treatment ratio versus control” value (rats [1]; male rats, day 28, high dose) was 0.87 *, the “Lysophosphatidylcholine (C20:4), treatment ratio versus control” value (rats [1]; male rats, day 28, high dose) was 0.8 * and the “Ceramide (d18:1, C24:0), treatment ratio versus control” value (rats [2]) was 1.33 *. The “Choline plasmalogen No 03, treatment ratio versus control” value (rats [2]) was 1.08 *.

With `Oc1ccc(O)cc1` [Hydroquinone] the “Glycerol-3-phosphate, polar fraction, treatment ratio versus control” value (rats [1]; [6]) was 1.64 *, the “Isoleucine, treatment ratio versus control” value (rats [1]; [6]) was 1.2 * and the “TAG No 02, treatment ratio versus control” value (rats [1]; [6]) was 1.91 *. The “Threonine, treatment ratio versus control” value (rats [1]; [6]) was 1.03, the “14-Methylhexadecanoic acid, treatment ratio versus control” value (rats [1]; [7]) was 0.81 and the “16-Methylheptadecanoic acid, treatment ratio versus control” value (rats [1]; [7]) was 0.76. For the same compound, the “18-Hydroxy-11-deoxycorticosterone, treatment ratio versus control” value (rats [1]; [7]) was 0.23 *, the “Citrate, treatment ratio versus control” value (rats [1]; [7]) was 0.82 * and the “DAG (C18:1, C18:2), treatment ratio versus control” value (rats [1]; [7]) was 0.43 *. For the same compound, the “Elaidic acid (C18:trans[9]1), treatment ratio versus control” value (rats [1]; [7]) was 0.84, the “Isopalmitic acid (C16:0), treatment ratio versus control” value (rats [1]; [7]) was 0.62 and the “Ketoleucine, treatment ratio versus control” value (rats [1]; [7]) was 0.75 *. For the same compound, the “Linolenic acid (C18:cis[9,12,15]3), treatment ratio versus control” value (rats [1]; [7]) was 0.56 *, the “Lysophosphatidylcholine (C18:0), treatment ratio versus control” value (rats [1]; [7]) was 0.99 * and the “Oleic acid (C18:cis[9]1), treatment ratio versus control” value (rats [1]; [7]) was 0.75 *. For the same compound, the “Palmitoleic acid (C16:cis[9]1), treatment ratio versus control” value (rats [1]; [7]) was 0.76 *, the “TAG (C16:0, C16:1), treatment ratio versus control” value (rats [1]; [7]) was 0.4 * and the “trans-4-Hydroxyproline, treatment ratio versus control” value (rats [1]; [7]) was 0.87 *. The “Leucine, treatment ratio versus control” value (rats [2]) was 1.23 *, the “Lysophosphatidylethanolamine (C22:0), treatment ratio versus control” value (rats [2]) was 1.26 * and the “Ornithine, treatment ratio versus control” value (rats [2]) was 1.24 *.

`Cn1c(=O)c2[nH]cnc2n(C)c1=O` [Theophylline] was tested, and the “Pantothenic acid, treatment ratio versus control” value (rats [1]; [8]) was 1.72 *, the “Proline, treatment ratio versus control” value (rats [1]; [8]) was 1.57 and the “Threonic acid, treatment ratio versus control” value (rats [1]; [8]) was 1.14. The “trans-4-Hydroxyproline, treatment ratio versus control” value (rats [1]; [8]) was 1.91 *, the “18-Hydroxy-11-deoxycorticosterone, treatment ratio versus control” value (rats [1]; [9]) was 0.5 * and the “Creatinine, treatment ratio versus control” value (rats [1]; [9]) was 0.8 *. For the same compound, the “Hippuric acid, treatment ratio versus control” value (rats [1]; [9]) was 0.28 *, the “Ceramide (d18:1, C24:0), treatment ratio versus control” value (rats [1]; [3]) was 0.92^ and the “Ceramide (d18:1, C24:1), treatment ratio versus control” value (rats [1]; [3]) was 0.75^. The “Glutamate, treatment ratio versus control” value (rats [1]; male rats, day 7, high dose) was 0.64 *, the “Lysophosphatidylcholine (C20:4), treatment ratio versus control” value (rats [1]; male rats, day 7, high dose) was 0.71 * and the “Malate, treatment ratio versus control” value (rats [1]; male rats, day 7, high dose) was 0.76 *. For the same compound, the “Ceramide (d18:1, C24:0), treatment ratio versus control” value (rats [1]; [4]) was 1.56 *, the “Ceramide (d18:1, C24:1), treatment ratio versus control” value (rats [1]; [4]) was 1.94 * and the “Lysophosphatidylcholine (C20:4), treatment ratio versus control” value (rats [1]; male rats, day 14, high dose) was 0.87 *. For the same compound, the “Malate, treatment ratio versus control” value (rats [1]; male rats, day 14, high dose) was 0.9, the “Ceramide (d18:1, C24:0), treatment ratio versus control” value (rats [1]; [5]) was 0.95 and the “Ceramide (d18:1, C24:1), treatment ratio versus control” value (rats [1]; [5]) was 1.17. The “Choline plasmalogen No 02, treatment ratio versus control” value (rats [1]; [5]) was 1, the “Choline plasmalogen No 03, treatment ratio versus control” value (rats [1]; [5]) was 1.03 and the “Glutamate, treatment ratio versus control” value (rats [1]; male rats, day 28, high dose) was 0.74 *. For the same compound, the “Lysophosphatidylcholine (C20:4), treatment ratio versus control” value (rats [1]; male rats, day 28, high dose) was 0.81 *, the “Malate, treatment ratio versus control” value (rats [1]; male rats, day 28, high dose) was 0.72 * and the “Glutamate, treatment ratio versus control” value (rats [2]) was 1.04^. For the same compound, the “Glycine, treatment ratio versus control” value (rats [2]) was 1.32 *, the “Histidine, treatment ratio versus control” value (rats [2]) was 1.25 * and the “Valine, treatment ratio versus control” value (rats [2]) was 1.29 *.
